Laboratory results from patent US20230049917A1, “Pharmaceutical Composition of CASR Modulators and Methods and Uses Thereof” (Lupin Limited, priority 2019, published 2023).
Where two headings read alike, the source gives them in different places.

What was measured:
[1] = cited from earlier work
[2] = Pharmacokinetic analysis after oral administration of the formulation to rats; format: in vivo; conditions: male, Sprague Dawley, rat, 5 mg/kg
Experimental: Male Sprague Dawley Rats (weight 225±25 gm; aged 8 to 10 weeks) were administered orally with the formulation. Each of the tested compounds was dosed at 5 mg/kg at a dose volume of 1 mL/kg. Blood samples were collected at time points 0.25, 0.5, 1, 2, 4, 6, 8 and 24 hours and analyzed the plasma concentrations of administered compound and calculated PK parameters. The plasma concentrations of the tested compounds were measured by liquid chromatography with tandem mass spectrometry (LCMS-MS) using […] extraction method. The plasma concentration-time data was subjected to Non-Compartmental Analysis using Phoenix WinNonlin® (Version 5.3) software to assess the pharmacokinetic parameters. Peak plasma concentrations (Cmax) and time for the peak plasma concentrations (Tmax) were the observed values. The area under the concentration time curve (AUC) was calculated by linear trapezoidal rule.

[3] = CKD patients not on dialysis, week 32

Row | AUC(0-t) ([2]; in vivo, po) [µM·h] | Cmax ([2]; in vivo, po) [µM] | Tmax ([2]; in vivo, po) [min] | SMILES | other results
1 |  |  |  | C[C@@H](NCCCc1cccc(C(F)(F)F)c1)c1cccc2ccccc12 [Cinacalcet] | phosphorus levels [1, 3]: 4.5 ± 1.0 mg/dL; phosphorus levels, change [1, 3]: +21.4%; serum calcium levels, frequently observed ([1]; patients with CKD not on dialysis): < 8.4 mg/dL
2 |  |  |  | C[C@@H](NC[C@H]1CN(c2cc(C(=O)O)cc(C(F)(F)F)c2)CCO1)c1cccc2ccccc12 [Compound 1, 3-((S)-2-((((R)-1-(naphthalen-1-yl)ethyl)amino)methyl)morpholino)-5-(trifluoromethyl)benzoic acid] | AUC(0-t) ([2]; oral, dose volume 1 mL/kg, plasma, sampling to 24 hours, read-out: AUC0-1): 7.3 ± 0.5 µM·h; Cmax ([2]; oral, plasma, read-out: Cmax): 3.6 ± 1 µM; Tmax ([2]; oral, plasma, read-out: Tmax): 15 to 60 min
3 | 5.5 ± 1 | 1.5 ± 1 | 30 to 120 | COc1cc([C@@H](C)NC[C@@H]2Cc3ccccc3[C@H](c3ccc(C)c(C(=O)O)c3C)C2)ccc1F.Cl [Compound 4, 3-((1R,3S)-3-((((R)-1-(4-fluoro-3-methoxyphenyl)ethyl)amino)methyl)-1,2,3,4-tetrahydronaphthalen-1-yl)-2,6-dimethylbenzoic acid] | 
4 | 16 ± 3 | 4.9 ± 3 | 15 | Cc1ccc(N2C[C@H](CCN[C@H](C)c3cccc4ccccc34)Oc3ccccc32)cc1C(=O)O.Cl [Compound 2, 2-methyl-5-((S)-2-(2-(((R)-1-(naphthalen-1-yl)ethyl)amino)ethyl)-2H-benzo[b][1,4]oxazin-4(3H)-yl)benzoic acid] | 
